{
  "source": "patent US20050279350A1",
  "about": "“Methods and apparatus for relieving headaches, rhinitis and other common ailments” (priority 1999, published 2005)",
  "tested_on": "mucous membrane of the nose, nasal passages, and mouth",
  "assay": "Effective and tolerable carbon dioxide flows found by the inventors (description)",
  "type": "in vivo, human",
  "description": "Furthermore, chronic inflammation of the mucosa and associated distress, caused by extended exposure to allergens and/or antigens, may be relieved within a few minutes by repeating such carbon dioxide applications. A possible mechanism of action of the above described local carbon dioxide treatment is the following. Creating a high concentration of carbon dioxide (hypercapnia) by infusing it into the nasal passages causes a very fast lowering of the pH (making more acidic) of the mucous membranes depressing the neuronal activity (inhibiting inflammatory mediator release such as histamine) of the nerves that supply the nasal mucous membranes and connect directly to the brainstem. Asthma is known to be a comorbid disease to allergic rhinitis. […] In addition, it is known that oxygenation is improved in patients with status asthmaticus, chronic obstructive pulmonary disease, and bronchiolitis by inhalation of helium. Also, inhaled nitric oxide improves the oxygenation and ventilation of most children with acute, hypoxic respiratory failure. For this reason, these respiratory ailments can be reduced or relieved by administering the above-described treatment using carbon dioxide or helium or nitric oxide. Furthermore, headaches (e.g., migraine headaches, tension-type headaches, cluster headaches, jaw pain, facial pain) are thought to be due to triggers creating a hyperexcitability state of nerves releasing inflammatory mediators such as histamine and serotonin. For this reason, headaches can be reduced or relieved by administering the above-described carbon dioxide treatment. Epilepsy, also a nervous hyperexcitability state, is known to be a comorbid disease to headaches and antiepileptic medications are used for migraine prevention. For this reason, epilepsy can be reduced or relieved by administering the above-described carbon dioxide treatment. […] Furthermore, other gases such as nitric oxide, oxygen, helium, and others may be administered similarly as therapeutic gases via the convenient hand-held easily controlled dispenser.\nFurthermore, it is desirable that the user be able to conveniently but precisely and controllably select a rate and duration of carbon dioxide flow that lies between the lower limit of effectiveness and the upper limit of tolerance. […] Flows as low as 1 cc/sec for 1-2 seconds into the nose are effective for suppression of onset of acute allergic symptoms, whereas flows of 4-5 cc/sec for 5-10 seconds are typically selected for optimum relief from a mild chronic allergy attack. For severely inflamed mucosa and/or for injection into the mouth, flows as high as 10 cc/sec or higher for as long as 15 seconds or longer often are selected for optimum relief. For the treatment of tension and migraine headaches, the flow durations can be substantially longer, as generally set forth in the Dosage Guideline (Table I) above.\nAt low flow rates, the presence of the carbon dioxide produces a “tingling” sensation similar to that produced during drinking of carbonated beverages that inadvertently enter the nasal passages e.g., “bubbles up the nose”. This is the effective rate and the tingling is a welcome sensation because it usually coincides with immediate relief of symptoms. Above a certain subjectively determined flow rate the sensation becomes unpleasant, which may be described as a “stinging” or “burning” sensation. At a still higher flow rate (maximum tolerable rate), the stinging sensation becomes intolerable and subjects remove the device from their nostril. […] More typically, an injection rate of up to 10 cc/sec can be tolerated for 5 seconds or more into the nose by most users and into the mouth by almost all users. It must be noted, however, that the tolerance level depends strongly on the sequential phase of the application and on the degree of inflammation and/or pain at that phase. […]",
  "data": [
    {"smiles": "O=C=O", "note": "[carbon dioxide]", "values": [
      {"measurement": "tolerance level", "setting": "a few individuals, a second or less of injection into the nose", "result": "1-2 cc/sec"},
      {"measurement": "suppression of onset of acute irritation of the mucosa", "setting": "bathing mucous membrane of nose, nasal passages and mouth with gaseous carbon dioxide", "result": "times as short as one second can suppress the onset of acute irritation of the mucosa"},
      {"measurement": "effective flow", "setting": "for 1-2 seconds into the nose, suppression of onset of acute allergic symptoms", "result": "≥ 1", "unit": "cc/sec"},
      {"measurement": "flow typically selected for optimum relief", "setting": "for 5-10 seconds, mild chronic allergy attack", "result": "4-5 cc/sec"},
      {"measurement": "tolerated injection rate", "setting": "for 5 seconds or more, into the nose by most users and into the mouth by almost all users", "result": "up to 10 cc/sec"},
      {"measurement": "flow often selected for optimum relief", "setting": "severely inflamed mucosa and/or injection into the mouth, for as long as 15 seconds or longer", "result": "≥ 10", "unit": "cc/sec"},
      {"measurement": "tolerance level", "setting": "typically, at the onset of the first carbon dioxide injection", "result": "< 3", "unit": "cc/sec"}
    ]}
  ]
}
